Measurements taken from the supplement of paper PMC10307832.

Columns and labels:
Test in all cases: relative viability (nuclei count vs DMSO), 5 days (fraction); higher = more cells survive
Decitabine + Olaparib = compound: Nc1ncn([C@H]2C[C@H](O)[C@@H](CO)O2)c(=O)n1 [Decitabine] + O=C(c1cc(Cc2n[nH]c(=O)c3ccccc23)ccc1F)N1CCN(C(=O)C2CC2)CC1 [Olaparib] (partner 8 µM)
In short: (§1)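 Lung cancer cell lines in 1536-well plates got either a single drug or a fixed anchor-drug dose together with five library-drug doses (not always all listed) in √10 steps, by pin tool, on the day after seeding. Nuclei were counted after 5 days, and relative viability is the treated-to-vehicle ratio of nuclei counts. Values are medians of duplicate plates.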

Cediranib + Linsitinib = compound: COc1cc2c(Oc3ccc4[nH]c(C)cc4c3F)ncnc2cc1OCCCN1CCCC1 [Cediranib] + C[C@]1(O)C[C@@H](c2nc(-c3ccc4ccc(-c5ccccc5)nc4c3)c3c(N)nccn32)C1 [Linsitinib] (partner 1 µM)
In short: as §1

[1] = compound: O=C(C[C@H]1NCCC[C@@H]1O)Cn1cnc2cc(Br)c(Cl)cc2c1=O (racemic) [Halofuginone] + CC(=O)Nc1cccc(-n2c(=O)n(C3CC3)c(=O)c3c(Nc4ccc(I)cc4F)n(C)c(=O)c(C)c32)c1 [Trametinib] (partner 0.02 µM)
In short: as §1

Decitabine + Linsitinib = compound: Nc1ncn([C@H]2C[C@H](O)[C@@H](CO)O2)c(=O)n1 [Decitabine] + C[C@]1(O)C[C@@H](c2nc(-c3ccc4ccc(-c5ccccc5)nc4c3)c3c(N)nccn32)C1 [Linsitinib] (partner 1 µM)
In short: as §1

Cell Line | relative viability (Decitabine + Olaparib; first compound 0.04 µM) | relative viability (Decitabine + Olaparib; first compound 0.1265 µM) | relative viability (Decitabine + Olaparib; first compound 0.4 µM) | relative viability (Decitabine + Olaparib; first compound 1.265 µM) | relative viability (Decitabine + Olaparib; first compound 4 µM) | relative viability (Cediranib + Linsitinib; first compound 0.04 µM) | relative viability (Cediranib + Linsitinib; first compound 0.1265 µM) | relative viability (Cediranib + Linsitinib; first compound 0.4 µM) | relative viability (Cediranib + Linsitinib; first compound 1.265 µM) | relative viability (Cediranib + Linsitinib; first compound 4 µM) | relative viability ([1]; first compound 0.001 µM) | relative viability ([1]; first compound 0.003162 µM) | relative viability ([1]; first compound 0.01 µM) | relative viability ([1]; first compound 0.03162 µM) | relative viability ([1]; first compound 0.1 µM) | relative viability (Decitabine + Linsitinib; first compound 0.04 µM) | relative viability (Decitabine + Linsitinib; first compound 0.1265 µM) | relative viability (Decitabine + Linsitinib; first compound 0.4 µM) | relative viability (Decitabine + Linsitinib; first compound 1.265 µM) | relative viability (Decitabine + Linsitinib; first compound 4 µM)
LXF-289 | 0.302 | 0.255 | 0.203 | 0.157 | 0.128 | 0.986 | 0.903 | 0.93 | 0.942 | 0.902 | 0.688 | 0.717 | 0.66 | 0.707 | 0.676 | 0.893 | 0.674 | 0.566 | 0.372 | 0.395
NCI-H23 | 0.229 | 0.2 | 0.166 | 0.134 | 0.154 | 0.698 |  | 0.542 | 0.442 | 0.682 | 0.413 | 0.407 | 0.392 | 0.402 | 0.217 | 0.571 | 0.381 | 0.252 | 0.215 | 0.229
NCI-H322M | 0.641 | 0.684 | 0.646 | 0.47 | 0.383 | 1.01 | 0.997 | 0.879 | 0.856 | 1.09 | 0.512 | 0.441 | 0.513 | 0.479 | 0.423 | 0.773 | 0.844 | 0.737 | 0.497 | 0.472
NCI-H358 | 0.27 | 0.182 | 0.165 | 0.1 | 0.106 | 0.919 | 0.745 | 0.681 | 0.717 | 0.899 | 0.158 | 0.138 | 0.12 | 0.119 | 0.0998 | 0.87 | 0.822 | 0.521 | 0.272 | 0.293
NCI-H441 | 0.151 | 0.219 | 0.157 | 0.128 | 0.136 | 0.445 | 0.546 | 0.524 | 0.551 | 0.652 | 0.48 | 0.428 | 0.493 | 0.471 | 0.233 | 0.282 | 0.407 | 0.272 | 0.19 | 0.165
NCI-H460 | 0.176 | 0.118 | 0.0739 | 0.0563 | 0.0657 | 0.86 | 0.757 | 0.702 | 0.727 | 0.676 | 0.115 | 0.197 | 0.172 | 0.0823 | 0.022 | 0.651 | 0.855 | 0.669 | 0.168 | 0.114
NCI-H520 | 0.201 | 0.297 | 0.251 | 0.188 | 0.167 | 1.08 |  | 0.809 | 0.806 | 0.908 | 0.572 | 0.734 | 0.695 | 0.45 | 0.287 | 1.13 | 0.916 | 0.633 | 0.333 | 0.324
